Results: patent US5990295A (priority 1998, dated 1999)

System: ω-conotoxin GVIA binding site on brain membrane preparations
Parameters: species or system frogs, chicks and rats

Question: How did the “displacement of 125I-GVIA” value turn out when ω-conotoxin GVIA was run?
Answer: approximately 90%

Question: And the “displacement of 125I-GVIA label” value?
Answer: approximately 98%
